≈ marks a conversion by molar mass, not a printed value.
How the values were obtained:
Assay in all cases: Antibacterial spectrum (MIC), agar dilution
Format in all cases: cell-based
Acinetobacter sp.51-156 = conditions: SP.51156, read-out: MIC
Protocol: (§1) In vitro activity was determined by minimum inhibitory concentration in a microorganism spectum by the agar dilution method in Mueller Hinton agar.

C.freundii 43 = conditions: Citrobacter freundii, read-out: MIC
Protocol: as §1

C.freundii 902 = conditions: Citrobacter freundii, read-out: MIC
Protocol: as §1

E.cloacae 908R = conditions: Enterobacter cloacae, read-out: MIC
Protocol: as §1

E.cloacae 908SSi = conditions: Enterobacter cloacae, read-out: MIC
Protocol: as §1

E.coli 25922 = conditions: Escherichia coli, read-out: MIC
Protocol: as §1

E.faecalis 6 = conditions: Enterococcus faecalis, read-out: MIC
Protocol: as §1

H.influenzae 1 = conditions: Haemophilus influenzae, read-out: MIC
Protocol: as §1

K.pneumoniae 418 = conditions: Klebsiella pneumoniae, read-out: MIC
Protocol: as §1

L.monocytogenes BK23 = conditions: Listeria monocytogenes, read-out: MIC
Protocol: as §1

M.catarrhalis RA21 = conditions: Moraxella catarrhalis, read-out: MIC
Protocol: as §1

M.morganii 6H-137 = conditions: Morganella morganii, 6H137, read-out: MIC
Protocol: as §1

N.meningitidis 69480 = conditions: Neisseria meningitidis, read-out: MIC
Protocol: as §1

P.aeruginosa 27853 = conditions: Pseudomonas aeruginosa, read-out: MIC
Protocol: as §1

P.mirabilis 2117 = conditions: Proteus mirabilis, read-out: MIC
Protocol: as §1

P.vulgaris 1028 = conditions: Proteus vulgaris, read-out: MIC
Protocol: as §1

S.agalactiae QK44 = conditions: Streptococcus agalactiae, read-out: MIC
Protocol: as §1

S.aureus 6538 = conditions: Staphylococcus aureus, read-out: MIC
Protocol: as §1

S.aureus 734 MRSA = conditions: Staphylococcus aureus, read-out: MIC
Protocol: as §1

S.marcescens 69438 = conditions: Serratia marcescens, read-out: MIC
Protocol: as §1

S.pneumoniae Q19 = conditions: Streptococcus pneumoniae, read-out: MIC
Protocol: as §1

S.pyogenes B15 = conditions: Streptococcus pyogenes, read-out: MIC
Protocol: as §1

S.viridans group 016 = conditions: Streptococcus viridans, read-out: MIC
Protocol: as §1

X.maltophilia 1AC739 = conditions: Stenotrophomonas maltophilia, read-out: MIC
Protocol: as §1

MIC (Acinetobacter sp.51-156)	MIC (C.freundii 43)	MIC (C.freundii 902)	MIC (E.cloacae 908R)	MIC (E.cloacae 908SSi)	MIC (E.coli 25922)	MIC (E.faecalis 6)	MIC (H.influenzae 1)	MIC (K.pneumoniae 418)	MIC (L.monocytogenes BK23)	MIC (M.catarrhalis RA21)	MIC (M.morganii 6H-137)	MIC (N.meningitidis 69480)	MIC (P.aeruginosa 27853)	MIC (P.mirabilis 2117)	MIC (P.vulgaris 1028)	MIC (S.agalactiae QK44)	MIC (S.aureus 6538)	MIC (S.aureus 734 MRSA)	MIC (S.marcescens 69438)	Compound	other results
16 mg/L (≈ 30.9 µM)	4 mg/L (≈ 7.71 µM)	0.12 mg/L (≈ 0.231 µM)	8 mg/L (≈ 15.4 µM)	1 mg/L (≈ 1.93 µM)	≤ 0.06 mg/L	1 mg/L (≈ 1.93 µM)	0.25 mg/L (≈ 0.482 µM)	0.12 mg/L (≈ 0.231 µM)	4 mg/L (≈ 7.71 µM)	8 mg/L (≈ 15.4 µM)	≤ 0.06 mg/L	0.25 mg/L (≈ 0.482 µM)	16 mg/L (≈ 30.9 µM)	≤ 0.06 mg/L	0.25 mg/L (≈ 0.482 µM)	0.5 mg/L (≈ 0.964 µM)	0.5 mg/L (≈ 0.964 µM)	8 mg/L (≈ 15.4 µM)	0.5 mg/L (≈ 0.964 µM)	Nc1nc(/C(=N/O)C(=O)N[C@@H]2C(=O)N3C(C(=O)O)=C(/C=C4\CCN(CC5CC5)C4=O)CS[C@H]23)cs1 [N, [6R-[3(E),6α,7β(Z)]]-7-[[(2-Amino-4-thiazolyl)(hydroxyimino)acetyl]-amino]-3-[[1-cyclopropylmethyl-2-oxo-3-pyrrolidinylidene]methyl]-8-oxo-5-thia-1-azabicyclo[4.2.0]oct-2-ene-2-carboxylic acid]	MIC (S.pneumoniae Q19): ≤ 0.06 mg/L; MIC (S.pyogenes B15): ≤ 0.06 mg/L; MIC (S.viridans group 016): 1 mg/L (≈ 1.93 µM); MIC (X.maltophilia 1AC739): > 32 mg/L
16 mg/L (≈ 31.8 µM)	4 mg/L (≈ 7.96 µM)	0.12 mg/L (≈ 0.239 µM)	16 mg/L (≈ 31.8 µM)	1 mg/L (≈ 1.99 µM)	≤ 0.06 mg/L	2 mg/L (≈ 3.98 µM)	0.25 mg/L (≈ 0.497 µM)	0.12 mg/L (≈ 0.239 µM)	2 mg/L (≈ 3.98 µM)	4 mg/L (≈ 7.96 µM)	≤ 0.06 mg/L	0.25 mg/L (≈ 0.497 µM)	8 mg/L (≈ 15.9 µM)	≤ 0.06 mg/L	8 mg/L (≈ 15.9 µM)	0.25 mg/L (≈ 0.497 µM)	1 mg/L (≈ 1.99 µM)	4 mg/L (≈ 7.96 µM)	1 mg/L (≈ 1.99 µM)	C#CCN1CC/C(=C\C2=C(C(=O)O)N3C(=O)[C@@H](NC(=O)/C(=N\O)c4csc(N)n4)[C@H]3SC2)C1=O [O, [6R-[3(E),6α,7β(Z)]]-7-[[(2-Amino-4-thiazolyl)(hydroxyimino)acetyl]-amino]-8-oxo-3-[[2-oxo-1-(2-propynyl)-3-pyrrolidinylidene]methyl]-5-thia-1-azabicyclo [4.2.0]-oct-2-ene-2-carboxylic acid]	MIC (S.pneumoniae Q19): ≤ 0.06 mg/L; MIC (S.pyogenes B15): ≤ 0.06 mg/L; MIC (S.viridans group 016): 0.5 mg/L (≈ 0.995 µM); MIC (X.maltophilia 1AC739): > 32 mg/L
32 mg/L (≈ 59 µM)	2 mg/L (≈ 3.69 µM)	0.12 mg/L (≈ 0.221 µM)	8 mg/L (≈ 14.7 µM)	0.25 mg/L (≈ 0.461 µM)	≤ 0.06 mg/L	0.5 mg/L (≈ 0.922 µM)	0.5 mg/L (≈ 0.922 µM)	0.25 mg/L (≈ 0.461 µM)	4 mg/L (≈ 7.37 µM)	8 mg/L (≈ 14.7 µM)	≤ 0.06 mg/L	0.5 mg/L (≈ 0.922 µM)	8 mg/L (≈ 14.7 µM)	0.12 mg/L (≈ 0.221 µM)	4 mg/L (≈ 7.37 µM)	0.5 mg/L (≈ 0.922 µM)	0.5 mg/L (≈ 0.922 µM)	8 mg/L (≈ 14.7 µM)	4 mg/L (≈ 7.37 µM)	Nc1nc(/C(=N/O)C(=O)N[C@@H]2C(=O)N3C(C(=O)O)=C(/C=C4\CCN(c5cnccn5)C4=O)CS[C@H]23)cs1 [P]	MIC (S.pneumoniae Q19): 0.12 mg/L (≈ 0.221 µM); MIC (S.pyogenes B15): ≤ 0.06 mg/L; MIC (S.viridans group 016): 1 mg/L (≈ 1.84 µM); MIC (X.maltophilia 1AC739): > 32 mg/L
